For eight compounds, GI50 and TGI results are on record in PubChem BioAssay (NCI).

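Each compound was tested at five concentrations against cells in 96-well plates for 48 hours. The concentration for 50% growth inhibition is given as GI50. TGI: total growth inhibition.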

Holding throughout (assay): NCI tumour cell line growth inhibition, 48 h
The subject of test [1] is SNB-19 CNS.
In test [2] the test system is HOP-62 NSCLC.
Test [3] concerns PC-3 prostate.
The subject of test [4] is SK-OV-3 ovarian.
Test [5] concerns CCRF-CEM leukemia.
For test [6], the system named is NCI-H226 lung.
Test [7] has as its system MDA-MB-435.
Test [8] relates to SN12C renal.
The subject of test [9] is SW-620 colon.
The test system of test [10] is COLO 205 colon.

On to `COc1ccc2ncn(-c3cc(O[C@H](C)c4ccccc4C(F)(F)F)c(C(N)=O)s3)c2c1`, for which the GI50 in test [1] was 1.88 µM; in test [2] it was 0.105 µM; in [3], 0.137 µM; in test [4] it was 0.1 µM; in test [5] it was 0.0821 µM; in test [6], 3.07 µM. Besides, the GI50 in [7] was 0.0466 µM; in test [8] it was 1.19 µM; in [9], 0.0749 µM; in [10], 0.0838 µM. For the same compound, the TGI in test [1] was determined as 11.3 µM; in test [2], 4.18 µM; in test [3] it was 15.3 µM; in test [4] it was 5.56 µM; in [5], 14.5 µM; in test [6], 12.4 µM. Moreover, the TGI in test [7] came to 0.155 µM; in test [8] it was 7.74 µM; in [9], 6.01 µM; in [10], 3.24 µM.

On to `O=C1N[C@@H]2[C@@H](O)[C@@H](O)[C@H](O)C[C@H]2c2cc3c(c(O)c21)OCCO3`, for which the GI50 in test [1] is 0.179 µM; in test [2] it was 0.282 µM; in [3], 0.293 µM; in test [4], 0.496 µM; in test [5], 0.0737 µM; in [6], 0.273 µM. In addition, the GI50 is 0.269 µM in test [7], 0.162 µM in test [8], 0.233 µM in test [9] and 0.162 µM in test [10]. The TGI in test [1] is 1.02 µM; in test [2], 1.32 µM; in test [3], 2.54 µM; in test [4], 4.03 µM; in test [5] it was 1.83 µM; in test [6], 1.08 µM. The TGI was found to be 1.22 µM in [7], 0.978 µM in test [8], 1.55 µM in test [9] and 0.405 µM in test [10].

With `COc1ccc(/C=C\c2cc(OC)c(OC)c(OC)c2)cc1OCC(=O)Nc1nc2ccc(F)cc2s1`, the GI50 was over 100 µM in test [1]; 5.7 µM in test [2]; 6.74 µM in test [3]; 8 µM in [4]; 3.7 µM in test [5]; 5.6 µM in test [6]. The GI50 was 0.335 µM in [7], 4.61 µM in test [8], 65.1 µM in [9] and 7.78 µM in test [10]. For the same compound, the TGI in test [1], in test [2], in test [3], in test [4], in [5] and in test [6] was over 100 µM each time. In addition, the TGI in test [7], in [8], in test [9] and in test [10] was over 100 µM each time.

On to `CC(C)(C)C(=O)OCOP(=O)(NCc1ccccc1)C1CCCN(O)C1=O` (stereo not given), for which the GI50 in test [1] was 3.12 µM; in test [2], 2.55 µM; in test [3], 5.08 µM; in test [5], 0.558 µM; in test [6], 0.462 µM; in test [7], 4.09 µM. Besides, the GI50 was 0.752 µM in test [8], 2.87 µM in test [9] and 2.47 µM in [10]. Further, the TGI was 24.9 µM in [1]; 32.8 µM in test [2]; over 100 µM in test [3]; over 100 µM in test [5]; 3.43 µM in [6]; 71.9 µM in [7]. For the same compound, the TGI in test [8] was 9.21 µM; in test [9], over 100 µM; in test [10], 13.7 µM.

In the case of `OCC1C(OCc2ccccc2)C(OCc2ccccc2)C(OCc2ccccc2)CN1Cc1ccccc1` (stereo not given), the TGI in test [1] was over 100 µM; in test [2], over 100 µM; in [3], 88.1 µM; in test [4], over 100 µM; in test [5], over 100 µM; in [6], over 100 µM. The TGI in [7] is over 100 µM; in [8] it was 39.6 µM; in [9], over 100 µM; in test [10] it was 28.4 µM.

Consider `COc1ccc2c(c1)C(=O)c1c-2n(CCCN(C)C)c(=O)c2ccccc12`, for which the GI50 is 0.264 µM in [1]; 0.433 µM in [2]; 0.436 µM in test [3]; 0.382 µM in [4]; 0.077 µM in [5]; 0.413 µM in [6]. For the same compound, the GI50 was 0.557 µM in test [7], 0.255 µM in [8], 0.16 µM in test [9] and 0.187 µM in test [10]. Further, the TGI in test [1] stood at 3.4 µM; in test [2], 11.2 µM; in [3], 8.07 µM; in [4] it was 3.14 µM; in [5], 0.629 µM; in test [6], 2.59 µM. Further, the TGI was 3.27 µM in test [7], 5.7 µM in test [8], 3.93 µM in [9] and 2.62 µM in test [10].

On to `CCOC(=O)Cc1c(C)c2cc(C(=O)c3ccccc3)c(O)cc2oc1=O`, for which the TGI is over 100 µM in [1]; over 100 µM in test [2]; 81.2 µM in test [3]; over 100 µM in test [5]; over 100 µM in test [6]; over 100 µM in test [7]. The TGI in test [8] is over 100 µM; in test [9] it was over 100 µM; in test [10], 37.2 µM.

For the compound `COc1cc(/C=C2\CC3C4CC=C5C[C@@H](OC(C)=O)CC[C@]5(C)C4CC[C@]3(C)C2=O)ccc1OCCN1CCCCC1` (stereo not given in full), the GI50 in [1] was 8.46 µM; in test [2] it was 12.1 µM; in test [3] it was 3.51 µM; in [4] it was 2.75 µM; in [5], 1.25 µM; in test [6], 11.8 µM. In addition, the GI50 was 1.93 µM in test [7], 3.18 µM in [9] and 3.14 µM in [10]. Besides, the TGI in test [1] was determined as 43.3 µM; in [2], 25.9 µM; in test [3], 11.2 µM; in test [4] it was 8.5 µM; in test [5] it was 3.35 µM; in test [6], 28.6 µM. Also, the figures for the TGI in [7], in [9] and in test [10] were 4.28 µM, 7.32 µM and 30.4 µM, respectively.
